# Assay results published in publication PMC7551591, “The Effect of Resveratrol or Curcumin on Head and Neck Cancer Cells Sensitivity to the Cytotoxic Effects of Cisplatin” (Nutrients, 2020).
# What was measured:
# Type in all cases: cell-based, human
# PE/CA-PJ49 tumor cells = assay: Annexin V-FITC/PI apoptosis flow cytometry, tumor cells; conditions: 24 h
# Experimental: (§1) The apoptosis assay was carried out with the Annexin V-FITC kit using the manufacturer’s (BD Pharmingen) protocol. Treated and untreated 1 × 10^6 cells/mL were resuspended in cold binding buffer and staining simultaneously with 5 μL FITC-Annexin V (green fluorescence) and 5 μL propidium iodide (PI) in the dark, at room temperature for 15 min. Then, 400μL of Annexin V binding buffer was added and 10,000 cells/sample were acquired using a BD Canto II flow cytometer. The analysis was performed using DIVA 6.2 software in order to discriminate viable cells (FITC^−PI^−) from necrotic cells […] and early apoptosis (FITC^+PI^−) from late apoptosis.
# (§2) Apoptosis can be seen as an efficient method of preventing malignant transformation, as it ensures the removal of cells which present with genetic alterations. Deficient apoptosis can promote the development of cancer, both through the accumulation of cells found during division and the blocking of the removal of cells with high malignant potential genetic variations. The factors which determine the cells to follow one of three possible pathways are not yet known – the start of apoptosis after cellular injury, the repair of the lesion or the continuation of the cellular cycle. Many therapeutical agents have anti-tumoral effects generated by their capacity to activate the apoptotic process. […] The flow cytometric analysis was performed using DIVA 6.2 software and allowed to discriminate viable cells (FITC^−PI^− = Q3) from necrotic cells (FITC^−PI^+ = Q1) and early apoptosis (FITC^+PI^− = Q4) from late apoptosis (FITC^+PI^+ = Q2).
# [1] = tested on: P21 (CDKN1A) gene expression in PE/CA-PJ49; assay: Real-time PCR of CDKN1A (P21) gene, tumor cells; conditions: 24 h, reference gene HPRT, 2^-ΔΔCt vs control
# Text: In order to isolate of total RNA from treated or untreated cells was used TRIzol reagent (Invitrogen)-a monophasic solution of phenol and guanidine isothiocyanate. During the isolation phases, the TRIzol reagent maintains RNA integrity, while disrupting cells and dissolving cell components. The addition of chloroform followed by centrifugation ensures the separation phase of the solution into an aqueous phase and an organic phase. RNA remains in the aqueous phase and is recovered by isopropanol precipitation. The RNA pellet washed once with 75% ice-cold ethanol and entrifuged at 10,000× g for 5 min at 4 °C. The […] is redissolved in nuclease-free water and incubating in a 60 °C water bath for 10 min. The concentration of isolated RNA was assessed using a NanoDrop spectrophotometer ([…], Montchanin, DE, USA). RNA purity was determined by A260/A280 ratios (an […] ratio as close as possible to 2 indicates the presence of highly purified RNA). Reverse transcription of messenger RNA molecules was performed using the High-capacity cDNA Reverse Transcription Kit from Applied Biosystems, using non-specific, randomic primers, following the manufacturer's instructions (Table 1). […] The obtained cDNA was stored at 4 °C and further used in the amplification reaction Real-Time PCR (RT-PCR). […] The samples were analyzed using the formula 2^-ΔΔCt.
# HUVEC normal cells [2] = assay: Annexin V-FITC/PI apoptosis flow cytometry, normal cells; conditions: 24 h; for Apoptoza Tarzie = Q2 (%): late apoptosis; for Apoptoza Totală = Q2+Q4 (%): total apoptosis
# Experimental: as §1, §2
# [3] = as above; conditions: human, HUVEC normal cells, read-out: Q3 (viable cells, FITC−PI−)
# Experimental: as §1, §2
# HUVEC normal cells [4] = assay: MTT drug sensitivity (viability) assay, normal cells; conditions: 24 h; for IC 25 / IC50: MTT; for IC50: Homo sapiens
# Experimental: The MTT assay is based on the ability of viable cells to reduce the reagent 3-(4,5-dimethylthiazol-2-yl)-2,5-diphenyltetrazolium bromide to colored formazan compounds [48]. Because the transformation is only possible in viable cells, the amount of blue formazan is proportional to the number of viable cells and thus, a linear dependence exists between cell activity and absorbance. Cells were seeded in triplicate in 96-well plates at a density of 5000 cells/well, incubated at 37 °C for 24 h. […] After the incubation period, 20 μL MTT (5 mg/mL in PBS) was added and further incubated for 4 h. The supernatant was removed, and the formazan product was analyzed spectrophotometrically (570 nm) after dissolution in DMSO. Wells without cells serve as a blank, and their absorbance was subtracted from the other results. Untreated cells were used as control and their viability was assumed as 100%. Results were expressed as mean values of three determinations ± standard deviation (SD). Data are presented as percent of cell viability and compared to untreated [Viability% = (T − B)/(U − B) × 100, {where T = absorbance of treated cells; U = absorbance of untreated cells, B = absorbance of blank}]. Once percent viability was obtained, the drug response curve was generated, and inhibitory concentration (IC50 and IC25) was calculated using GraphPad Prism version 5.01 [49].
# SI values of more than 2 were considered as indicative of high selectivity.
# The anticancer cytotoxic activity in vitro was evaluated by the MTT assay. […] The most widely used and informative measure of a drug’s efficacy is IC50-the half-maximal inhibitory concentration. IC50 was determined at half of the difference between the maximum (plateau) and minimum absorbance values, by plotting the absorbance value at 570 nm (Y axis) versus the concentration of the compound analysed (X axis). The IC50 values were reported as a mean of three independent experiments ± standard deviation (S.D.).
smiles,measurement,setting,value
"COc1cc(/C=C/C(=O)CC(=O)/C=C/c2ccc(O)c(OC)c2)ccc1O [CRM, Curcumin]",Early Apoptosis = Q4 (%),PE/CA-PJ49 tumor cells; 15 μM CRM,19.1%
same,Late Apoptosis = Q2 (%),PE/CA-PJ49 tumor cells; 15 μM CRM,9.1%
same,Necrosis = Q1 (%),PE/CA-PJ49 tumor cells; 15 μM CRM,6.7%
same,Total Apoptosis = Q2 + Q4 (%),PE/CA-PJ49 tumor cells; 15 μM CRM,28.2%
same,viability at 15 µM,"PE/CA-PJ49 tumor cells; Homo sapiens, 15 μM CRM, read-out: Q3 (viable cells, FITC−PI−)",65.1%
same,n-fold P21 gene expression PE/CA-PJ49,[1]; 15 μM CRM,1.2
same,Early Apoptosis = Q4 (%),HUVEC normal cells [2]; 15 μM CRM,6.7%
same,Necrosis = Q1 (%),HUVEC normal cells [2]; 15 μM CRM,2.6%
same,Apoptoza Tarzie = Q2 (%),HUVEC normal cells [2]; 15 μM CRM,0.5%
same,Apoptoza Totală = Q2+Q4 (%),HUVEC normal cells [2]; 15 μM CRM,7.2%
same,"viability at 24 h, 15 μM",[3]; 15 μM CRM,90.2%
same,IC 25,HUVEC normal cells [4],19.2 ± 2.1 µM
same,IC50,HUVEC normal cells [4],59.3 ± 6.1 µM
"Oc1ccc(C=Cc2cc(O)cc(O)c2)cc1 [RSV, 3,5,4′-trihydroxystilbene]",Early Apoptosis = Q4 (%),PE/CA-PJ49 tumor cells; 40 μM RSV,17.7%
same,Late Apoptosis = Q2 (%),PE/CA-PJ49 tumor cells; 40 μM RSV,9.5%
same,Necrosis = Q1 (%),PE/CA-PJ49 tumor cells; 40 μM RSV,5.4%
same,Total Apoptosis = Q2 + Q4 (%),PE/CA-PJ49 tumor cells; 40 μM RSV,27.2%
same,viability at 40 µM,"PE/CA-PJ49 tumor cells; Homo sapiens, 40 μM RSV, read-out: Q3 (viable cells, FITC−PI−)",67.4%
same,n-fold P21 gene expression PE/CA-PJ49,[1]; 40 μM RSV,3.1
same,Early Apoptosis = Q4 (%),HUVEC normal cells [2]; 40 μM RSV,4.8%
same,Necrosis = Q1 (%),HUVEC normal cells [2]; 40 μM RSV,1.2%
same,Apoptoza Tarzie = Q2 (%),HUVEC normal cells [2]; 40 μM RSV,0.3%
same,Apoptoza Totală = Q2+Q4 (%),HUVEC normal cells [2]; 40 μM RSV,5.1%
same,"viability at 24 h, 40 μM",[3]; 40 μM RSV,93.7%
same,IC 25,HUVEC normal cells [4],40.6 ± 3.3 µM
same,cell viability (MTT),HUVEC normal cells [4]; RSV 40 μM vs untreated cells,significantly affected
same,IC50,HUVEC normal cells [4],110 ± 8.6 µM
